Laboratory results from PubChem BioAssay (NCI).
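1) Cells in 96-well plates. 2) Compound, 48 h, 5 concentrations. 3) Linear interpolation between surrounding doses. 4) Unreached endpoint = highest concentration. The concentration for full growth arrest is given as TGI.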

What was measured:
Assay in all cases: NCI tumour cell line growth inhibition, 48 h
IGROV1 ovarian = tested on: IGROV1 ovarian
UACC-62 melanoma = tested on: UACC-62 melanoma
LOX IMVI melanoma = tested on: LOX IMVI melanoma
K-562 leukemia = tested on: K-562 leukemia
HT29 colon = tested on: HT29 colon
HCT-15 colon = tested on: HCT-15 colon
UO-31 renal = tested on: UO-31 renal
NCI-H522 lung = tested on: NCI-H522 lung
M14 melanoma = tested on: M14 melanoma
786-0 renal = tested on: 786-0 renal
SW-620 colon = tested on: SW-620 colon
SK-MEL-5 melanoma = tested on: SK-MEL-5 melanoma
MALME-3M melanoma = tested on: MALME-3M melanoma
RXF 393 renal = tested on: RXF 393 renal
MCF7 breast = tested on: MCF7 breast
OVCAR-3 ovarian = tested on: OVCAR-3 ovarian
HOP-62 NSCLC = tested on: HOP-62 NSCLC

SMILES	TGI (IGROV1 ovarian)	TGI (UACC-62 melanoma)	TGI (LOX IMVI melanoma)	TGI (K-562 leukemia)	TGI (HT29 colon)	TGI (HCT-15 colon)	TGI (UO-31 renal)	TGI (NCI-H522 lung)	TGI (M14 melanoma)	TGI (786-0 renal)	TGI (SW-620 colon)	TGI (SK-MEL-5 melanoma)	TGI (MALME-3M melanoma)	TGI (RXF 393 renal)	TGI (MCF7 breast)	TGI (OVCAR-3 ovarian)	TGI (HOP-62 NSCLC)
COc1ccc(-n2c(=O)[nH]n(C(C)=O)c2=O)cc1	> 100 µM	> 100 µM	> 100 µM	> 100 µM	> 100 µM	> 100 µM	> 100 µM	> 100 µM	> 100 µM	> 100 µM	> 100 µM	> 100 µM	> 100 µM	> 100 µM	> 100 µM		
Cc1nn(C(=O)c2ccc(Cl)cc2)c2c1C(c1ccccc1[N+](=O)[O-])SC(N)=N2 (stereo unspecified)	> 10 µM	> 10 µM	> 10 µM	> 10 µM	> 10 µM	> 10 µM		> 10 µM	> 10 µM	> 10 µM	> 10 µM	> 10 µM	> 10 µM	2.25 µM	> 10 µM	> 10 µM	> 10 µM
O=S(Nc1ccccc1)c1cccc(Cl)c1 (stereo unspecified)	> 100 µM		> 100 µM	> 100 µM	> 100 µM	> 100 µM	> 100 µM	> 100 µM	> 100 µM	> 100 µM	> 100 µM	> 100 µM	> 100 µM	> 100 µM	> 100 µM	> 100 µM	> 100 µM
CCn1c(SCC(=O)NNC(=S)Nc2ccc([N+](=O)[O-])cc2)nc2ccccc2c1=O	> 100 µM	> 100 µM	> 100 µM	> 100 µM		> 100 µM	> 100 µM	> 100 µM	> 100 µM	> 100 µM	> 100 µM	> 100 µM	> 100 µM	> 100 µM	> 100 µM	> 100 µM	> 100 µM
CN(C)CCN(C)c1ccc2c(=O)n(CCN(C)C)c(=O)n3c4ccccc4c(=O)c1c23	8.02 µM	2.6 µM	5.53 µM		3.73 µM	10.8 µM	2.62 µM	2.8 µM	6.68 µM	10.2 µM	8.34 µM	2.71 µM	3 µM	11.2 µM	11.3 µM	12.6 µM	1.47 µM
C[C@@H](c1ccccc1)N1CN(C(=O)OCc2ccccc2)C(C)(C)CC1=O	> 100 µM	> 100 µM	> 100 µM	> 100 µM	> 100 µM	> 100 µM		> 100 µM	> 100 µM	> 100 µM	> 100 µM	> 100 µM	> 100 µM	70.9 µM	> 100 µM	> 100 µM	> 100 µM
CC(=O)Oc1ccc(-c2cc3ccccc3oc2=O)cc1			> 100 µM	> 100 µM	> 100 µM	> 100 µM	> 100 µM	> 100 µM	> 100 µM	> 100 µM	> 100 µM		> 100 µM		> 100 µM	70.9 µM	> 100 µM
CCSc1n/c(=C\c2ccco2)c2nncn12	> 100 µM	> 100 µM	> 100 µM	> 100 µM	> 100 µM	> 100 µM	> 100 µM	> 100 µM	> 100 µM	> 100 µM	> 100 µM	> 100 µM	> 100 µM		> 100 µM	> 100 µM	> 100 µM
O=C(CCc1ccc(O)c(O)c1)NCCc1cc(O)cc(O)c1	> 100 µM	> 100 µM	> 100 µM	79.4 µM	> 100 µM	> 100 µM	> 100 µM	> 100 µM	> 100 µM	> 100 µM	> 100 µM	> 100 µM		> 100 µM	> 100 µM	> 100 µM	> 100 µM
Cc1cn(C2CC(O)C(COC(=O)NCCC(F)(F)C(F)(F)C(F)(F)C(F)(F)F)O2)c(=O)[nH]c1=O (stereo unspecified)	> 100 µM	> 100 µM		> 100 µM	> 100 µM		> 100 µM	> 100 µM	> 100 µM	> 100 µM	> 100 µM	> 100 µM	> 100 µM	> 100 µM	> 100 µM	> 100 µM	> 100 µM
CC(C)(C)OC(=O)N1CCC(C(=O)O)CC1	> 100 µM	> 100 µM	> 100 µM		> 100 µM	> 100 µM	> 100 µM	> 100 µM	> 100 µM	> 100 µM	> 100 µM	> 100 µM	> 100 µM		> 100 µM	> 100 µM	> 100 µM
CCOC(=O)Cn1c(=O)c2nc(SC)sc2n(CC)c1=S	> 100 µM		> 100 µM	> 100 µM	> 100 µM	> 100 µM	28.8 µM	> 100 µM	17.4 µM	0.32 µM	> 100 µM	> 100 µM	> 100 µM	> 100 µM	> 100 µM	> 100 µM	> 100 µM
Cc1cc(N(CCC#N)CCC#N)ccc1/C(N=Nc1ccc(C(=O)O)cc1)=N\NC(=O)c1cc(Cl)ccc1O	59 µM	> 100 µM		> 100 µM	> 100 µM	> 100 µM	68 µM	35.9 µM	> 100 µM	39.8 µM		> 100 µM	> 100 µM	78.9 µM	> 100 µM	> 100 µM	65.4 µM
Cc1nn(C(=O)Cc2ccccc2)c2c1C(c1ccc(O)cc1O)SC(N)=N2 (stereo unspecified)	> 100 µM	> 100 µM	> 100 µM		> 100 µM	> 100 µM	> 100 µM	> 100 µM	> 100 µM	> 100 µM	> 100 µM	> 100 µM	> 100 µM		> 100 µM		> 100 µM
O=C1CSC(c2ccc([N+](=O)[O-])cc2)N1c1ccc(-n2c(-c3ccccc3)nc3ccccc3c2=O)cc1 (stereo unspecified)	> 100 µM	> 100 µM	> 100 µM	> 100 µM	> 100 µM	> 100 µM	29.3 µM	> 100 µM	> 100 µM	> 100 µM	> 100 µM	> 100 µM	> 100 µM		> 100 µM	> 100 µM	> 100 µM
